{
  "source": "patent US20240417435A1",
  "about": "“DEFENSIN-DERIVED PEPTIDE WITH ANTIBACTERIAL ACTIVITY ALSO AGAINST MULTI-ANTIBIOTIC-RESISTANT BACTERIA” (priority 2021, published 2024)",
  "experiment_in_all_cases": "Invasion and protection assay in HeLa cells",
  "type_in_all_cases": "cell-based, Staphylococcus aureus",
  "key": {"[1]": {"tested_on": "S. aureus ATCC 6538 (intracellular, HeLa cells)", "conditions": "wild-type strain S. aureus ATCC 6538 in HeLa cells; 40 μM for 1 h; all times tested", "description": "(§1) The S. aureus ATCC 6538, MRSA strain 2 and MRSA strain 3 invasion assays were conducted as previously described (Colicchio R et al., Antimicrob Agents Chemother 2015; 59:7637-49; Spinosa M R et al. Infect Immun 2007; 75:3594-3603). HeLa cells (ATCC CCL-2) were used for the standard invasion and intracellular viability assays. The cells were cultured in DMEM with 2 mM L-glutamine. The cells were infected at a multiplicity of infection (MOI) of 50 for 1 h, washed twice with PBS1× to eliminate most of the extracellular bacteria, exposed to gentamicin (Sigma-Aldrich) to kill the remaining extracellular bacteria, and then destroyed with saponin (0.5%) to release the intracellular bacteria. To quantify the intracellular staphylococci released by the HeLa cells, the lysed cell suspension was plated on BHI agar, and the number of CFUs was counted the next day. When required, cells were re-incubated in the cell culture medium for various times (3 and 5 hours) after treatment with gentamicin. Treatment with gentamicin was conducted using 105 μM, a concentration 10 times higher than the MIC, for 30 minutes at 37° C. with 5% CO2. Cells were then washed thoroughly with PBS1× to remove the gentamicin and dead extracellular bacteria, and then lysed or re-incubated with medium. To evaluate the protection with the reduced peptide γ2 after treatment with gentamicin, the molecule was added to the sample at the final concentration of 40 µM for 1 hour, then washed twice with PBS1×, and finally destroyed with saponin. As the antibacterial activity of the reduced and oxidised peptide γ2 against S. aureus ATCC 6538 was very similar (Table 1), only the reduced form was used in the test. In all the experiments, the bacteria were centrifuged (60×g) on the cells to start the assay. The experiments were conducted in triplicate, and the data were expressed as mean±SD."}, "[2]": {"tested_on": "MRSA strain 2 (intracellular, HeLa cells)", "conditions": "MRSA 2 strain in HeLa cells; 40 μM for 1 h", "description": "as §1"}, "[3]": {"tested_on": "MRSA strain 3 (intracellular, HeLa cells)", "conditions": "MRSA 3 strain in HeLa cells; 40 μM for 1 h; all times tested", "description": "as §1"}},
  "note": "Where a SMILES comes first, the peptide text is derived from it.",
  "data": [
    {"smiles": "CC[C@H](C)[C@H](NC(=O)[C@H](CCC(N)=O)NC(=O)[C@H](CCCNC(=N)N)NC(=O)[C@H](CCCNC(=N)N)NC(=O)[C@H](CCCCN)NC(=O)[C@@H]1CCCN1C(=O)[C@H](CC(C)C)NC(=O)[C@H](CS)NC(C)=O)C(=O)NCC(=O)N[C@@H](CCCCN)C(=O)N[C@@H](CO)C(=O)N[C@@H](CO)C(=O)N[C@H](C(=O)N[C@@H](CCCNC(=N)N)C(=O)NCC(=O)N[C@@H](CCCNC(=N)N)C(=O)N[C@@H](CCCCN)C(=O)N[C@@H](CO)C(=O)N[C@@H](CS)C(=O)N[C@@H](CCCCN)C(=O)N[C@@H](CCCCN)C(N)=O)[C@@H](C)O", "note": "[Reduced peptide γ2] (Ac-CLPKRRQIGKSSTRGRKSCKK-NH2)", "values": [
      {"measurement": "viable intracellular bacteria (CFU)", "setting": "[1]", "value": "great reduction in viable intracellular bacteria"},
      {"measurement": "viable intracellular bacteria (CFU)", "setting": "[2]", "value": "bacteriostatic effect"},
      {"measurement": "viable intracellular bacteria (CFU)", "setting": "[3]", "value": "great reduction in viable intracellular bacteria"}
    ]}
  ]
}
